Values quoted from earlier work in patent US20130338095A1, “Chemosensory Receptor Ligand-Based Therapies” (ELCELYX THERAPEUTICS, INC., priority 2010, published 2013).

Legend:
[1] = patients with jejunostomy
GLP-1 = settings: rats
[2] = bitter phytonutrients in common plant foods

Row | Molecule | Taste quality [2] | further results
1 | GLP-2: gut hormone, glucagon-like peptide 2 (HADGSFSDEMNTILDNLAARDFINWLIQTKITD; Glucagon-like peptide 2; UniProt P01275 146-178, looked up) | – | intestinal absorption of energy [1]: improve; intestinal wet weight absorption [1]: improve
2 | OCCN1C[C@H](O)[C@@H](O)[C@H](O)[C@H]1CO [miglitol] | – | increase in GLP-1 with administration of a DPP-IV inhibitor (GLP-1): synergistic
3 | CC1(C)O[C@H]2CC(=O)OC[C@]23[C@H]2CC[C@@]4(C)[C@H](c5ccoc5)OC(=O)[C@H]5O[C@]54[C@]2(C)C(=O)C[C@@H]13 [Limonin] | Bitter | –
4 | O=c1c(-c2ccc(O)cc2)coc2cc(O)ccc12 [daidzein] | Bitter or astringent | –
5 | O=c1c(O)c(-c2ccc(O)c(O)c2)oc2cc(O)cc(O)c12 [Quercetin] | Bitter | –
6 | O=C(O[C@@H]1Cc2c(O)cc(O)cc2O[C@@H]1c1ccc(O)c(O)c1)c1cc(O)c(O)c(O)c1 [Epicatechin gallate] | Bitter and astringent | –
7 | C[S+]([O-])CCCCN=C=S (centres unmarked) [4-Methylsulfinyl butyl isothiocyanate] | Acrid mustard oils | –
